Positions of bridges follow the written chain, without caps; N, C: chain ends. Residues, ends and D or L forms follow the SMILES beside them.
Target: T1, recombinant human Seprase (rhuSeprase) (Homo sapiens, UniProt Q12884)
T1 construct: named pCEP4-IgKappa-huSeprase-coCHO_26-760aa-H6 and used for the generation of recombinant soluble human Seprase (rhuSeprase); mouse Ig kappa-chain V-J2-C secretion signal (N, cleaved yes); made in house; host or cells: FreeStyle CHO-S cells (transient transfection; purified from supernatant by Ni-chelate and SEC)
T1 sequence (Q12884 26-760): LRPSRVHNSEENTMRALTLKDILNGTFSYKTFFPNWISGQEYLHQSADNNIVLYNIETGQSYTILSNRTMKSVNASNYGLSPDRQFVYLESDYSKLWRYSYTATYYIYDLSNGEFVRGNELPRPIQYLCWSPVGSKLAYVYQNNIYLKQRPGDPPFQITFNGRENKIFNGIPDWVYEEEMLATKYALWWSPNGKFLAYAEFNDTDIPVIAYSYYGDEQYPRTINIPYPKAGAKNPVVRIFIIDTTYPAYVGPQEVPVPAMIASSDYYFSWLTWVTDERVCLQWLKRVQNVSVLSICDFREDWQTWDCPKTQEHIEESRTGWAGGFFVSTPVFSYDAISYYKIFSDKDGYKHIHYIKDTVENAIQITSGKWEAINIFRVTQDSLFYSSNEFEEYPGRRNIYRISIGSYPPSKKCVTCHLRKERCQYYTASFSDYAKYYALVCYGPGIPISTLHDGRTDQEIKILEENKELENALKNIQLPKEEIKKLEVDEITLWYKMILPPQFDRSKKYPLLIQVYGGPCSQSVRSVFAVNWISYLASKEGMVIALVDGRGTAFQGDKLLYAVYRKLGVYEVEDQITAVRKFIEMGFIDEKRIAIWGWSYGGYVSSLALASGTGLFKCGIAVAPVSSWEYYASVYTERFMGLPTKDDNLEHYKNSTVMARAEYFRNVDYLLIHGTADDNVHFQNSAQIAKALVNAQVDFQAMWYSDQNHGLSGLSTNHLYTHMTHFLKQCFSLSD
Test: Surface plasmon resonance (Biacore T100) on immobilized rhuSeprase
Assay type: binding
Conditions: for kon: read-out: ka (1/Ms)

CC[C@H](C)[C@@H]1NC(=O)[C@@H]2CSSC[C@H](NC(=O)[C@H](C)NC(=O)CNC(=O)[C@H](CO)NC(=O)CN)C(=O)N3CCC[C@H]3C(=O)N[C@@H](Cc3ccc(O)cc3)C(=O)N[C@@H](CO)C(=O)N[C@@H](CC(N)=O)C(=O)N[C@@H](Cc3c[nH]c4ccccc34)C(=O)N[C@@H]([C@@H](C)O)C(=O)N3CCC[C@H]3C(=O)NCC(=O)N[C@@H](CCCNC(=N)N)C(=O)NCC(=O)N3CCC[C@H]3C(=O)N[C@@H](CC(=O)O)C(=O)N[C@H]3CSSC[C@H](NC1=O)C(=O)N[C@@H](CC(C)C)C(=O)N[C@@H](CCC(=O)O)C(=O)N[C@@H](CC(N)=O)C(=O)NCC(=O)N[C@@H](Cc1ccccc1)C(=O)N[C@H](C(=O)NCC(=O)O)CSSC[C@H](NC(=O)[C@H](CC(=O)O)NC(=O)[C@H](CO)NC(=O)[C@H](CC(=O)O)NC(=O)[C@H](CO)NC(=O)[C@H](CO)NC3=O)C(=O)N1CCC[C@H]1C(=O)NCC(=O)N[C@@H](C)C(=O)N2 [MO-FA-012] (H-GSGACPYSNWTPGRGPDCSSDSDCPGACICLENGFCG-OH; disulfide 5-28, 18-30, 24-36; N-terminus and C-terminus assumed)
kd: 0.5128 s⁻¹ | kon: 382000 M⁻¹ s⁻¹

CC(C)C[C@@H]1NC(=O)[C@@H]2CSSC[C@@H](C(=O)NCC(=O)O)NC(=O)[C@H](Cc3ccccc3)NC(=O)CNC(=O)[C@H](CC(N)=O)NC(=O)[C@@H]3CCCN3C(=O)CNC(=O)[C@@H]3CSSC[C@H](NC(=O)[C@H](CC(=O)O)NC(=O)[C@@H]4CCCN4C(=O)CNC(=O)[C@H](CCCNC(=N)N)NC(=O)CNC(=O)[C@@H]4CCCN4C(=O)[C@H]([C@@H](C)O)NC(=O)[C@H](Cc4c[nH]c5ccccc45)NC(=O)[C@H](CC(N)=O)NC(=O)[C@H](CO)NC(=O)[C@H](Cc4ccc(O)cc4)NC(=O)[C@@H]4CCCN4C(=O)[C@@H](NC(=O)[C@H](C)NC(=O)CNC(=O)[C@H](CO)NC(=O)CN)CSSC[C@H](NC(=O)CNC(=O)[C@H](C)NC1=O)C(=O)N[C@@H](C(C)C)C(=O)N3)C(=O)N[C@@H](CO)C(=O)N[C@@H](CCC(N)=O)C(=O)N[C@@H](CC(=O)O)C(=O)N[C@@H](CO)C(=O)N[C@@H](CC(=O)O)C(=O)N2 [ET-FA-012] (H-GSGACPYSNWTPGRGPDCSQDSDCLAGCVCGPNGFCG-OH; disulfide 5-28, 18-30, 24-36; N-terminus and C-terminus assumed)
kd: 0.8528 s⁻¹ | kon: 608000 M⁻¹ s⁻¹

CC[C@H](C)[C@@H]1NC(=O)[C@@H]2CSSC[C@H](NC(=O)[C@H](C)NC(=O)CNC(=O)[C@H](CO)NC(=O)CN)C(=O)N3CCC[C@H]3C(=O)N[C@@H](Cc3ccc(O)cc3)C(=O)N[C@@H]([C@@H](C)O)C(=O)N[C@@H](CCCNC(=N)N)C(=O)N[C@@H](Cc3c[nH]c4ccccc34)C(=O)N[C@@H](C)C(=O)N[C@@H](C(C)C)C(=O)NCC(=O)N[C@@H](CCCNC(=N)N)C(=O)NCC(=O)N3CCC[C@H]3C(=O)N[C@@H](CC(=O)O)C(=O)N[C@H]3CSSC[C@H](NC1=O)C(=O)N[C@@H](CCCNC(=N)N)C(=O)NCC(=O)N[C@@H](CC(N)=O)C(=O)NCC(=O)N[C@@H](Cc1ccc(O)cc1)C(=O)N[C@H](C(=O)NCC(=O)O)CSSC[C@H](NC(=O)[C@H](CC(=O)O)NC(=O)[C@H](CO)NC(=O)[C@H](CC(=O)O)NC(=O)[C@H](CCCNC(=N)N)NC(=O)[C@H](CCCNC(=N)N)NC3=O)C(=O)N1CCC[C@H]1C(=O)NCC(=O)N[C@@H](CCCNC(=N)N)C(=O)N2 [FA8-D03] (H-GSGACPYTRWAVGRGPDCRRDSDCPGRCICRGNGYCG-OH; disulfide 5-28, 18-30, 24-36; N-terminus and C-terminus assumed)
kd: 0.1381 s⁻¹ | kon: 939000 M⁻¹ s⁻¹

CC[C@H](C)[C@@H]1NC(=O)[C@@H]2CSSC[C@H](NC(=O)[C@H](C)NC(=O)CNC(=O)[C@H](CO)NC(=O)CN)C(=O)N3CCC[C@H]3C(=O)N[C@@H](Cc3ccc(O)cc3)C(=O)N[C@@H](CO)C(=O)N[C@@H](CC(N)=O)C(=O)N[C@@H](Cc3c[nH]c4ccccc34)C(=O)N[C@@H](C)C(=O)N[C@@H](C(C)C)C(=O)NCC(=O)N[C@@H](CCCNC(=N)N)C(=O)NCC(=O)N3CCC[C@H]3C(=O)N[C@@H](CO)C(=O)N[C@H]3CSSC[C@H](NC1=O)C(=O)N[C@@H](CCCNC(=N)N)C(=O)NCC(=O)N[C@@H](CC(N)=O)C(=O)NCC(=O)N[C@@H](Cc1ccc(O)cc1)C(=O)N[C@H](C(=O)NCC(=O)O)CSSC[C@H](NC(=O)[C@H](CC(=O)O)NC(=O)[C@H](CO)NC(=O)[C@H](CC(=O)O)NC(=O)[C@H](CCCNC(=N)N)NC(=O)[C@H](CCCNC(=N)N)NC3=O)C(=O)N1CCC[C@H]1C(=O)NCC(=O)N[C@@H](CCCNC(=N)N)C(=O)N2 [FA8-F04] (H-GSGACPYSNWAVGRGPSCRRDSDCPGRCICRGNGYCG-OH; disulfide 5-28, 18-30, 24-36; N-terminus and C-terminus assumed)
kd: 0.2003 s⁻¹ | kon: 624000 M⁻¹ s⁻¹

CC[C@H](C)[C@@H]1NC(=O)[C@@H]2CSSC[C@H](NC(=O)[C@H](C)NC(=O)CNC(=O)[C@H](CO)NC(=O)CN)C(=O)N3CCC[C@H]3C(=O)N[C@@H](Cc3ccc(O)cc3)C(=O)N[C@@H]([C@@H](C)O)C(=O)N[C@@H](CC(N)=O)C(=O)N[C@@H](Cc3c[nH]c4ccccc34)C(=O)N[C@@H](CCCNC(=N)N)C(=O)N3CCC[C@H]3C(=O)NCC(=O)N[C@@H](CCCNC(=N)N)C(=O)NCC(=O)N3CCC[C@H]3C(=O)N[C@@H](C)C(=O)N[C@H]3CSSC[C@H](NC1=O)C(=O)N[C@@H](CCCNC(=N)N)C(=O)NCC(=O)N[C@@H](CC(N)=O)C(=O)NCC(=O)N[C@@H](Cc1ccc(O)cc1)C(=O)N[C@H](C(=O)NCC(=O)O)CSSC[C@H](NC(=O)[C@H](CC(=O)O)NC(=O)[C@H](CO)NC(=O)[C@H](CC(=O)O)NC(=O)[C@H](CCCNC(=N)N)NC(=O)[C@H](CCCNC(=N)N)NC3=O)C(=O)N1CCC[C@H]1C(=O)NCC(=O)N[C@@H](CCCNC(=N)N)C(=O)N2 [FA8-C09] (H-GSGACPYTNWRPGRGPACRRDSDCPGRCICRGNGYCG-OH; disulfide 5-28, 18-30, 24-36; N-terminus and C-terminus assumed)
kd: 2.935 s⁻¹ | kon: 9.92e+06 M⁻¹ s⁻¹

CC[C@H](C)[C@@H]1NC(=O)[C@@H]2CSSC[C@H](NC(=O)[C@H](C)NC(=O)CNC(=O)[C@H](CO)NC(=O)CN)C(=O)N3CCC[C@H]3C(=O)N[C@@H](Cc3ccc(O)cc3)C(=O)N[C@@H]([C@@H](C)O)C(=O)N[C@@H](CC(N)=O)C(=O)N[C@@H](Cc3c[nH]c4ccccc34)C(=O)N[C@@H](Cc3c[nH]cn3)C(=O)N3CCC[C@H]3C(=O)NCC(=O)N[C@@H](CCCNC(=N)N)C(=O)NCC(=O)N3CCC[C@H]3C(=O)N[C@@H](C)C(=O)N[C@H]3CSSC[C@H](NC1=O)C(=O)N[C@@H](CCCNC(=N)N)C(=O)NCC(=O)N[C@@H](CC(N)=O)C(=O)NCC(=O)N[C@@H](Cc1ccc(O)cc1)C(=O)N[C@H](C(=O)NCC(=O)O)CSSC[C@H](NC(=O)[C@H](CC(=O)O)NC(=O)[C@H](CO)NC(=O)[C@H](CC(=O)O)NC(=O)[C@H](CCCNC(=N)N)NC(=O)[C@H](CCCNC(=N)N)NC3=O)C(=O)N1CCC[C@H]1C(=O)NCC(=O)N[C@@H](CCCNC(=N)N)C(=O)N2 [FA8-G12] (H-GSGACPYTNWHPGRGPACRRDSDCPGRCICRGNGYCG-OH; disulfide 5-28, 18-30, 24-36; N-terminus and C-terminus assumed)
kd: 0.3171 s⁻¹ | kon: 651000 M⁻¹ s⁻¹

CC[C@H](C)[C@@H]1NC(=O)[C@@H]2CSSC[C@H](NC(=O)[C@H](C)NC(=O)CNC(=O)[C@H](CO)NC(=O)CN)C(=O)N3CCC[C@H]3C(=O)N[C@@H](Cc3ccc(O)cc3)C(=O)N[C@@H](CO)C(=O)N[C@@H](CCCNC(=N)N)C(=O)N[C@@H](Cc3c[nH]c4ccccc34)C(=O)N[C@@H](CCSC)C(=O)N3CCC[C@H]3C(=O)NCC(=O)N[C@@H](CCCNC(=N)N)C(=O)NCC(=O)N3CCC[C@H]3C(=O)N[C@@H](CO)C(=O)N[C@H]3CSSC[C@H](NC1=O)C(=O)N[C@@H](CCCNC(=N)N)C(=O)NCC(=O)N[C@@H](CC(N)=O)C(=O)NCC(=O)N[C@@H](Cc1ccc(O)cc1)C(=O)N[C@H](C(=O)NCC(=O)O)CSSC[C@H](NC(=O)[C@H](CC(=O)O)NC(=O)[C@H](CO)NC(=O)[C@H](CC(=O)O)NC(=O)[C@H](CCCNC(=N)N)NC(=O)[C@H](CCCNC(=N)N)NC3=O)C(=O)N1CCC[C@H]1C(=O)NCC(=O)N[C@@H](CCCNC(=N)N)C(=O)N2 [FA7-A05] (H-GSGACPYSRWMPGRGPSCRRDSDCPGRCICRGNGYCG-OH; disulfide 5-28, 18-30, 24-36; N-terminus and C-terminus assumed)
kd: 0.05035 s⁻¹ | kon: 246000 M⁻¹ s⁻¹

From patent US10370433B2, “Compositions and methods for diagnosis and treatment of cancer” (BIONTECH AG, priority 2015, dated 2019)
